Test results from patent publication US20250090596A1, “MODULATING INFLAMMATION ASSOCIATED WITH FOREIGN BODY RESPONSE” (CRISPR Therapeutics AG, priority 2023, published 2025).
Where “and” joins values, the source holds several entries; their conditions need not be identical. Identical values can stand only once.

Experiments:
athymic rats [1] = settings: rat, in vivo
Description: (§1) The administration of the calcineurin inhibitors was achieved through formulation into the chow fed to the animals (athymic rats).

PEC-211 cells = experiment: In vitro differentiation of PEC-211 to stage 6 in presence of Tacrolimus, flow cytometry; type: cell-based, human; settings: 0.1 μM, 10 days
Method: Evaluation of the PEC-211 cells in the presence of Tacrolimus was performed in vitro. Stage 4 Pancreatic progenitor PEC-211 cells were further differentiated to stage 6 to produce matured islet like cell population in presence of 0.1 μM of Tacrolimus for 10 days. Control PEC-211 cells were not treated with Tacrolimus.

athymic rats [2] = experiment: Previous in vivo sensitivity studies of a similar combination product with unmodified cells; settings: unmodified-cell combination product, drug in chow
Description: as §1

[3] = type: in vivo, Rat (Rattus norvegicus)
Description: Prior to implant, 30 male athymic nude rats (described in Table 19) were randomly assigned to three groups of ten animals each, and unbiased weight distribution was confirmed. […] At implant, each animal was surgically implanted subcutaneously with two VCTX test articles. The animals then continued to receive their respective chow. Group 1 and 3 animals received their respective chow for 12 weeks, while Group 2 animals only tolerated the tacrolimus-containing chow for 3 weeks. […] At 12 weeks, all animals were switched to standard rodent chow (Teklad 2920X, Envigo).

VCTX211 implants = experiment: GSIS test of VCTX211 implants under calcineurin inhibitor chow; type: in vivo, Rat (Rattus norvegicus);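 also: athymic nude rats each carrying two subcutaneous VCTX211-loaded perforated delivery devices, fed calcineurin inhibitor or control chow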
Description: Provided in this Example are in vivo efficacy evaluations of VCTX211 combination products (e.g., genetically modified cells loaded into a perforated delivery device) to assess potential sensitivity of exposure to calcineurin inhibitors. In this study, athymic nude rats each received two implants of compositions comprising genetically modified cells disclosed herein (e.g., VCTX211) each.
VCTX211 test articles (e.g., perforated delivery devices loaded with genetically modified cells disclosed herein) were first generated with pancreatic endoderm cell (PEC-211; e.g., comprising B2M KO and KI of TNFAIP3 and PD-L1; and KO of TXNIP and KI of MANF and HLA-E) aggregates derived from VCTX211 stem cell progenitor cells. To do so, the thaw and culture of PEC-211 aggregates was first performed in roller bottles. On the third day post-thaw, 20 μL aliquots of settled pellet volume (approximately 9×10^6 cells) were prepared and loaded into sterilized PD20 devices (e.g., perforated cell delivery device) to produce VCTX test articles. […] After formulation, test articles were maintained at room temperature in 10 mL storage tubes with media for 2 days.
Prior to implant, 30 male athymic nude rats (described in Table 19) were randomly assigned to three groups of ten animals each, and unbiased weight distribution was confirmed. […] At implant, each animal was surgically implanted subcutaneously with two VCTX test articles. The animals then continued to receive their respective chow. […] At 12 weeks, all animals were switched to standard rodent chow (Teklad 2920X, Envigo).

[4] = individual animals, serum, 90 min after glucose
[5] = individual animals, serum, fasted

With `C=CC[C@@H]1/C=C(\C)C[C@H](C)C[C@H](OC)[C@H]2O[C@@](O)(C(=O)C(=O)N3CCCC[C@H]3C(=O)O[C@H](/C(C)=C/[C@@H]3CC[C@@H](O)[C@H](OC)C3)[C@H](C)[C@@H](O)CC1=O)[C@H](C)C[C@@H]2OC` [TAC, tacrolimus] the “dose-limiting finding preventing increased exposure” value (athymic rats [1]) was “toxicity resulting in inappetence and severe weight loss”, the “exposure levels versus target levels for prophylactic use in clinical organ transplantation” value (athymic rats [1]) was “below target levels” and the “effect on in vitro differentiation to islet cells” value (PEC-211 cells) was “did not affect”. The “CHGA-NKX6.1+ PDX1+ or- (Pancreatic Progenitor)” value (PEC-211 cells; Stage 6 cells, flow cytometry) was 16.9, the “Total CHGA+” value (PEC-211 cells; Stage 6 cells, flow cytometry) was 76.3 and the “Total GCG+” value (PEC-211 cells; Stage 6 cells, flow cytometry) was 36.6. For the same compound, the “Total INS+” value (PEC-211 cells; Stage 6 cells, flow cytometry) was 70.4, the “Total NKX6.1+” value (PEC-211 cells; Stage 6 cells, flow cytometry) was 48.7 and the “effect on development or function of beta cells derived from the implants” value (athymic rats [2]) was “did not appear to affect”. For the same compound, the “animals died or euthanized in extremis” value ([3]; by 3 weeks, group of 10) was 3 animals, the “average loss of body weight” value ([3]; rat, in vivo) was 8% and the “functional development of VCTX211 grafts, evaluated with GSIS tests, compared to control animals” value (VCTX211 implants; cyclosporine A 12 weeks, tacrolimus 3 weeks) was “not affected”. For the same compound, the “C-peptide, 16 Weeks, 60 min” value (VCTX211 implants; individual animals, serum, 60 min after glucose) was 1131 pM and 1798 pM and 720 pM and 1365 pM and 3073 pM and 700 pM, the “C-peptide, 12 Weeks, 90 min” value (VCTX211 implants; [4]) was 1933 pM and 1504 pM and 627 pM and 428 pM and 1178 pM and 1271 pM and the “C-peptide, 16 Weeks, 90 min” value (VCTX211 implants; [4]) was 1312 pM and 1545 pM and 1271 pM and 1207 pM and 1782 pM and 1140 pM. The “C-peptide, 12 Weeks, Fast” value (VCTX211 implants; [5]) was 113 pM and 123 pM and 119 pM and 107 pM and 147 pM and 109 pM and the “C-peptide, 16 Weeks, Fast” value (VCTX211 implants; [5]) was 282 pM and 253 pM and 273 pM and 227 pM and 302 pM and 219 pM.
